Reference: patent publication EP0290169A2, “Diamineplatinum complexes with phosphonocarboxylate and substituted phosphonocarboxylate ligands as antitumor agents” (ENGELHARD CORPORATION, priority 1987, dated 1988)

system: L1210 leukemia; experiment: L1210 screening (L1210 leukemia tumor model), increase in life span; type: in vivo, Female CDF1 mice; settings: dose 5.00 mg/kg on day 1, vehicle water
Method: Female CDF1 mice (16-22 g) are injected with a suspension of 1 x 10^6 tumor cells in 0.5 mL of 0.15 M saline on day zero. On day one, the mice receive the test compound in 0.5 mL of the chosen medium (usually water). Six mice were used for each test dose, with six doses normally being run. Normal controls (six mice) receive tumor on day zero and 0.5 mL of the test medium on day one. Positive controls (six mice) receive tumor on day zero and 8 mg/kg cisplatin in 0.5 mL of 0.15 M saline on day one. All compound doses are adjusted for the actual average weight of the mice involved. Testing is terminated at three times the normal control mean life span. The percent increase in lifespan (ILS) is calculated as follows: %ILS = [(mean life span (test)/mean life span(control)-I]x100 A 25% ILS or greater indicates activity. The maximum possible ILS is 200%. The positive control must have an ILS of S 25% for the test to be considered valid.
The tumor line is maintained by transfer of 5 x 10^4- cells in 0.1 mL saline every seven days. DBA/2 (18-22 g) mice are employed for tumor transfers

Question: Which “%ILS” value does the source give for `CC(N)CN.O=C1CP(=O)(O)[O][Pt][O]1` (racemic) [Ex 10, H[Pt(pn)(phasphonoacetate)]] here?
Answer: -5%

same assay, conditions: dose 5.00 mg/kg on day 1, vehicle water; survivors

Question: How did the Surv. turn out when `CC(N)CN.O=C1CP(=O)(O)[O][Pt][O]1` (racemic) [Ex 10, H[Pt(pn)(phasphonoacetate)]] was run?
Answer: 0/ 6

same assay, conditions: dose 10.00 mg/kg on day 1, vehicle water

Question: How did the “%ILS” value turn out when `N[C@@H]1CCCC[C@H]1N.O=C1[O][Pt][O]P1(=O)[O-].[Na+]` [Ex 20, Na[Pt(trans-R,R-dach)(phosphonoformate)]] was run?
Answer: -17%

Question: For `CC(N)CN.O=C1CP(=O)(O)[O][Pt][O]1` (racemic) [Ex 10, H[Pt(pn)(phasphonoacetate)]], which “%ILS” value is on record?
Answer: 2%

same assay, conditions: dose 10.00 mg/kg on day 1, vehicle water; survivors

Question: Which Surv. does the source give for `N[C@@H]1CCCC[C@H]1N.O=C1[O][Pt][O]P1(=O)[O-].[Na+]` [Ex 20, Na[Pt(trans-R,R-dach)(phosphonoformate)]] here?
Answer: 0/ 6

Question: `CC(N)CN.O=C1CP(=O)(O)[O][Pt][O]1` (racemic) [Ex 10, H[Pt(pn)(phasphonoacetate)]] was tested. Which Surv. did it give?
Answer: 0/ 6

same assay, conditions: dose 20.00 mg/kg on day 1, vehicle water

Question: For `N[C@@H]1CCCC[C@H]1N.O=C1[O][Pt][O]P1(=O)[O-].[Na+]` [Ex 20, Na[Pt(trans-R,R-dach)(phosphonoformate)]], which “%ILS” value is on record?
Answer: -20%

Question: How did the “%ILS” value turn out when `CC(N)CN.O=C1CP(=O)(O)[O][Pt][O]1` (racemic) [Ex 10, H[Pt(pn)(phasphonoacetate)]] was run?
Answer: -13%

same assay, conditions: dose 20.00 mg/kg on day 1, vehicle water; survivors

Question: For `N[C@@H]1CCCC[C@H]1N.O=C1[O][Pt][O]P1(=O)[O-].[Na+]` [Ex 20, Na[Pt(trans-R,R-dach)(phosphonoformate)]], which Surv. is on record?
Answer: 0/ 6

Question: `CC(N)CN.O=C1CP(=O)(O)[O][Pt][O]1` (racemic) [Ex 10, H[Pt(pn)(phasphonoacetate)]] was tested. Which Surv. did it give?
Answer: 0/ 6

same assay, conditions: dose 40.00 mg/kg on day 1, vehicle water

Question: For `N[C@@H]1CCCC[C@H]1N.O=C1[O][Pt][O]P1(=O)[O-].[Na+]` [Ex 20, Na[Pt(trans-R,R-dach)(phosphonoformate)]], which “%ILS” value is on record?
Answer: -14%

Question: For `CC(N)CN.O=C1CP(=O)(O)[O][Pt][O]1` (racemic) [Ex 10, H[Pt(pn)(phasphonoacetate)]], which “%ILS” value is on record?
Answer: -13%

same assay, conditions: dose 40.00 mg/kg on day 1, vehicle water; survivors

Question: `N[C@@H]1CCCC[C@H]1N.O=C1[O][Pt][O]P1(=O)[O-].[Na+]` [Ex 20, Na[Pt(trans-R,R-dach)(phosphonoformate)]] was tested. Which Surv. did it give?
Answer: 0/ 6

Question: `CC(N)CN.O=C1CP(=O)(O)[O][Pt][O]1` (racemic) [Ex 10, H[Pt(pn)(phasphonoacetate)]] was tested. Which Surv. did it give?
Answer: 0/ 6

same assay, conditions: dose 80.00 mg/kg on day 1, vehicle water

Question: With `N[C@@H]1CCCC[C@H]1N.O=C1[O][Pt][O]P1(=O)[O-].[Na+]` [Ex 20, Na[Pt(trans-R,R-dach)(phosphonoformate)]] as the molecule, how does the “%ILS” value read?
Answer: -7%

Question: For `CC(N)CN.O=C1CP(=O)(O)[O][Pt][O]1` (racemic) [Ex 10, H[Pt(pn)(phasphonoacetate)]], which “%ILS” value is on record?
Answer: -34%

same assay, conditions: dose 80.00 mg/kg on day 1, vehicle water; survivors

Question: Which Surv. does the source give for `N[C@@H]1CCCC[C@H]1N.O=C1[O][Pt][O]P1(=O)[O-].[Na+]` [Ex 20, Na[Pt(trans-R,R-dach)(phosphonoformate)]] here?
Answer: 0/ 6

Question: For `CC(N)CN.O=C1CP(=O)(O)[O][Pt][O]1` (racemic) [Ex 10, H[Pt(pn)(phasphonoacetate)]], which Surv. is on record?
Answer: 0/ 6

same assay, conditions: dose 160.00 mg/kg on day 1, vehicle water

Question: How did the “%ILS” value turn out when `N[C@@H]1CCCC[C@H]1N.O=C1[O][Pt][O]P1(=O)[O-].[Na+]` [Ex 20, Na[Pt(trans-R,R-dach)(phosphonoformate)]] was run?
Answer: 11%

Question: With `CC(N)CN.O=C1CP(=O)(O)[O][Pt][O]1` (racemic) [Ex 10, H[Pt(pn)(phasphonoacetate)]] as the molecule, how does the “%ILS” value read?
Answer: -52%

same assay, conditions: dose 160.00 mg/kg on day 1, vehicle water; survivors

Question: With `N[C@@H]1CCCC[C@H]1N.O=C1[O][Pt][O]P1(=O)[O-].[Na+]` [Ex 20, Na[Pt(trans-R,R-dach)(phosphonoformate)]] as the molecule, how does the Surv. read?
Answer: 0/ 6

Question: `CC(N)CN.O=C1CP(=O)(O)[O][Pt][O]1` (racemic) [Ex 10, H[Pt(pn)(phasphonoacetate)]] was tested. Which Surv. did it give?
Answer: 0/ 6

same assay, conditions: dose 320.00 mg/kg on day 1, vehicle water

Question: With `N[C@@H]1CCCC[C@H]1N.O=C1[O][Pt][O]P1(=O)[O-].[Na+]` [Ex 20, Na[Pt(trans-R,R-dach)(phosphonoformate)]] as the molecule, how does the “%ILS” value read?
Answer: 20%

same assay, conditions: dose 320.00 mg/kg on day 1, vehicle water; survivors

Question: With `N[C@@H]1CCCC[C@H]1N.O=C1[O][Pt][O]P1(=O)[O-].[Na+]` [Ex 20, Na[Pt(trans-R,R-dach)(phosphonoformate)]] as the molecule, how does the Surv. read?
Answer: 0/ 6

system: Sarcoma 180 ascites; experiment: S180a screening (Sarcoma 180 ascites tumor model), increase in life span; type: in vivo, CFW mice; settings: dose 10.00 mg/kg on day 1, vehicle water
Method: CFW mice, averaging 20 g, are innoculated on day zero with 0.2 mL of a freshly prepared saline suspension (0.15 M NaCI) containing 1 × 10^7 tumor cells/mL, or a total of 2 x 10^6 cells. On day I, the mice are injected with the test compound in the selected medium (usually water). Six mice are used per test dose, with six doses normally being run.
Also, on day one, two types of controls (6 mice/set are employed: (1) Normal (1 set): 0.5 mL of the solvent medium used for the test compound, and (2) Positive control (1 set): cis-[Pt(NH3)2Cl2] in saline at 8 mg/kg.
The effectiveness of a compound is measured in terms of the increase in life span (ILS) of the test animals relative to the controls calculated from the day of tumor inoculation (day zero). The day of evaluation is arbitrarily taken as that day corresponding to twice the mean life-span of the normal controls. This sets a practical upper limit of 100% on the ILS attainable. For calculation purposes, survivors on the day of evaluation are considered to have died on that day. The % ILS is formulated as: [formula]
ILS values above 50% represent activity. The positive controls must have an ILS of ≧ 50% for the test to be valid.

Question: With `N[C@@H]1CCCC[C@H]1N.O=C1[O][Pt][O]P1(=O)[O-].[Na+]` [Ex 20, Na[Pt(trans-R,R-dach)(phosphonoformate)]] as the molecule, how does the “%ILS” value read?
Answer: 6%

same assay, conditions: dose 10.00 mg/kg on day 1, vehicle water; survivors on day of evaluation

Question: For `N[C@@H]1CCCC[C@H]1N.O=C1[O][Pt][O]P1(=O)[O-].[Na+]` [Ex 20, Na[Pt(trans-R,R-dach)(phosphonoformate)]], which Surv. is on record?
Answer: 0/ 6

same assay, conditions: dose 20.00 mg/kg on day 1, vehicle water

Question: How did the “%ILS” value turn out when `N[C@@H]1CCCC[C@H]1N.O=C1[O][Pt][O]P1(=O)[O-].[Na+]` [Ex 20, Na[Pt(trans-R,R-dach)(phosphonoformate)]] was run?
Answer: -5%

Question: How did the “%ILS” value turn out when `CC(N)CN.O=C1CP(=O)(O)[O][Pt][O]1` (racemic) [Ex 10, H[Pt(pn)(phasphonoacetate)]] was run?
Answer: 77%

same assay, conditions: dose 20.00 mg/kg on day 1, vehicle water; survivors on day of evaluation

Question: How did the Surv. turn out when `N[C@@H]1CCCC[C@H]1N.O=C1[O][Pt][O]P1(=O)[O-].[Na+]` [Ex 20, Na[Pt(trans-R,R-dach)(phosphonoformate)]] was run?
Answer: 0/ 6

Question: How did the Surv. turn out when `CC(N)CN.O=C1CP(=O)(O)[O][Pt][O]1` (racemic) [Ex 10, H[Pt(pn)(phasphonoacetate)]] was run?
Answer: 3/ 6

same assay, conditions: dose 40.00 mg/kg on day 1, vehicle water

Question: How did the “%ILS” value turn out when `N[C@@H]1CCCC[C@H]1N.O=C1[O][Pt][O]P1(=O)[O-].[Na+]` [Ex 20, Na[Pt(trans-R,R-dach)(phosphonoformate)]] was run?
Answer: 7%

Question: For `CC(N)CN.O=C1CP(=O)(O)[O][Pt][O]1` (racemic) [Ex 10, H[Pt(pn)(phasphonoacetate)]], which “%ILS” value is on record?
Answer: 9%

same assay, conditions: dose 40.00 mg/kg on day 1, vehicle water; survivors on day of evaluation

Question: `N[C@@H]1CCCC[C@H]1N.O=C1[O][Pt][O]P1(=O)[O-].[Na+]` [Ex 20, Na[Pt(trans-R,R-dach)(phosphonoformate)]] was tested. Which Surv. did it give?
Answer: 0/ 6

Question: `CC(N)CN.O=C1CP(=O)(O)[O][Pt][O]1` (racemic) [Ex 10, H[Pt(pn)(phasphonoacetate)]] was tested. Which Surv. did it give?
Answer: 1/ 6

same assay, conditions: dose 80.00 mg/kg on day 1, vehicle water

Question: For `N[C@@H]1CCCC[C@H]1N.O=C1[O][Pt][O]P1(=O)[O-].[Na+]` [Ex 20, Na[Pt(trans-R,R-dach)(phosphonoformate)]], which “%ILS” value is on record?
Answer: 18%

Question: Which “%ILS” value does the source give for `CC(N)CN.O=C1CP(=O)(O)[O][Pt][O]1` (racemic) [Ex 10, H[Pt(pn)(phasphonoacetate)]] here?
Answer: -71%

same assay, conditions: dose 80.00 mg/kg on day 1, vehicle water; survivors on day of evaluation

Question: `N[C@@H]1CCCC[C@H]1N.O=C1[O][Pt][O]P1(=O)[O-].[Na+]` [Ex 20, Na[Pt(trans-R,R-dach)(phosphonoformate)]] was tested. Which Surv. did it give?
Answer: 0/ 6

Question: Which Surv. does the source give for `CC(N)CN.O=C1CP(=O)(O)[O][Pt][O]1` (racemic) [Ex 10, H[Pt(pn)(phasphonoacetate)]] here?
Answer: 0/ 6

same assay, conditions: dose 160.00 mg/kg on day 1, vehicle water

Question: With `N[C@@H]1CCCC[C@H]1N.O=C1[O][Pt][O]P1(=O)[O-].[Na+]` [Ex 20, Na[Pt(trans-R,R-dach)(phosphonoformate)]] as the molecule, how does the “%ILS” value read?
Answer: 59%

Question: For `CC(N)CN.O=C1CP(=O)(O)[O][Pt][O]1` (racemic) [Ex 10, H[Pt(pn)(phasphonoacetate)]], which “%ILS” value is on record?
Answer: -78%

same assay, conditions: dose 160.00 mg/kg on day 1, vehicle water; survivors on day of evaluation

Question: `N[C@@H]1CCCC[C@H]1N.O=C1[O][Pt][O]P1(=O)[O-].[Na+]` [Ex 20, Na[Pt(trans-R,R-dach)(phosphonoformate)]] was tested. Which Surv. did it give?
Answer: 0/ 6

Question: `CC(N)CN.O=C1CP(=O)(O)[O][Pt][O]1` (racemic) [Ex 10, H[Pt(pn)(phasphonoacetate)]] was tested. Which Surv. did it give?
Answer: 0/ 6

same assay, conditions: dose 320.00 mg/kg on day 1, vehicle water

Question: For `N[C@@H]1CCCC[C@H]1N.O=C1[O][Pt][O]P1(=O)[O-].[Na+]` [Ex 20, Na[Pt(trans-R,R-dach)(phosphonoformate)]], which “%ILS” value is on record?
Answer: 55%

Question: With `CC(N)CN.O=C1CP(=O)(O)[O][Pt][O]1` (racemic) [Ex 10, H[Pt(pn)(phasphonoacetate)]] as the molecule, how does the “%ILS” value read?
Answer: -79%

same assay, conditions: dose 320.00 mg/kg on day 1, vehicle water; survivors on day of evaluation

Question: How did the Surv. turn out when `N[C@@H]1CCCC[C@H]1N.O=C1[O][Pt][O]P1(=O)[O-].[Na+]` [Ex 20, Na[Pt(trans-R,R-dach)(phosphonoformate)]] was run?
Answer: 0/ 6

Question: For `CC(N)CN.O=C1CP(=O)(O)[O][Pt][O]1` (racemic) [Ex 10, H[Pt(pn)(phasphonoacetate)]], which Surv. is on record?
Answer: 0/ 6
